The record followed here is ChEMBL document CHEMBL1909046, “DrugMatrix in vitro pharmacology data”.

Kappa-type opioid receptor, sequence (P41145 whole entry): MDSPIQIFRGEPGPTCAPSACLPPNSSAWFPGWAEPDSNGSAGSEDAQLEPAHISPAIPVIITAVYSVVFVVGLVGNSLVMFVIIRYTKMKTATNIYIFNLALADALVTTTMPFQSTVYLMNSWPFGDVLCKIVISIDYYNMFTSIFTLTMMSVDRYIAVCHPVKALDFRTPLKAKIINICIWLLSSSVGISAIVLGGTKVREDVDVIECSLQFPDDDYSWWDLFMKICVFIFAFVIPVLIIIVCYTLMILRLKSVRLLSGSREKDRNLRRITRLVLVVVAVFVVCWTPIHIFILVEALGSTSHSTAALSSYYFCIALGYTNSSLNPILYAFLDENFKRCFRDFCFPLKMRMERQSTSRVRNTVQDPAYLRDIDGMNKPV

Test system in the first experiment: not listed separately
Briefly: DRUGMATRIX: Calcium Channel Type L, Phenylalkylamine radioligand binding (ligand: [3H] (-)-Desmethoxyverapamil (D-888)). As to conditions: Not Active = under 50% inhibition at 10 µM. The experiment is classed as cell membranes, Rattus norvegicus, Wistar, Brain, Membrane.
Regarding `Cc1cc(NS(=O)(=O)c2ccc(N)cc2)no1` [SULFAMETHOXAZOLE], the IC50 entry is “Not Active” and the Ki result is “Not Active”.
Consider `O=C1c2c(O)ccc(O)c2C(=O)c2c(NCCNCCO)ccc(NCCNCCO)c21` [MITOXANTRONE], for which the IC50 entry is “Not Active” and the Ki entry is reported as “Not Active”.

The next experiment concerns the target T1, Endothelin-1 receptor (Homo sapiens, UniProt P25101). Further: in other assays of this panel Not Active means under 50% inhibition at 10 µM.
T1 sequence (P25101 whole entry): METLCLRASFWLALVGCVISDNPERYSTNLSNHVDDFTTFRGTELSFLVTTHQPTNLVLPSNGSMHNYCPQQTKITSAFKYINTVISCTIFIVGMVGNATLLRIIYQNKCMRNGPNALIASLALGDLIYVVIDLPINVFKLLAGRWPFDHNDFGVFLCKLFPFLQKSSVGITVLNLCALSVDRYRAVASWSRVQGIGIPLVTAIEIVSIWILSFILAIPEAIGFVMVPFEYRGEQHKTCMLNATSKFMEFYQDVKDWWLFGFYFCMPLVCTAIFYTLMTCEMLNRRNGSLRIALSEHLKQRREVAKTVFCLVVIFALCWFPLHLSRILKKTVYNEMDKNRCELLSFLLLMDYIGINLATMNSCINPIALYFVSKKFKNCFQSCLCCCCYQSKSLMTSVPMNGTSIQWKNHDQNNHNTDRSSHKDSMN
The experiment is classed as cell membranes, Membrane. As to conditions: cho-k1.
On to `Cc1cc(NS(=O)(=O)c2ccc(N)cc2)no1` [SULFAMETHOXAZOLE], for which the IC50 entry is “Not Active”.
With `O=C1c2c(O)ccc(O)c2C(=O)c2c(NCCNCCO)ccc(NCCNCCO)c21` [MITOXANTRONE], the IC50 entry is recorded as “Not Active”.

The target of the next experiment is 5-hydroxytryptamine receptor 6 (Homo sapiens, UniProt P50406). The experiment is classed as cell membranes, HeLa, Membrane. The settings on record: hela. Further: in other assays of this panel Not Active means under 50% inhibition at 10 µM.
5-hydroxytryptamine receptor 6, sequence (P50406 whole entry): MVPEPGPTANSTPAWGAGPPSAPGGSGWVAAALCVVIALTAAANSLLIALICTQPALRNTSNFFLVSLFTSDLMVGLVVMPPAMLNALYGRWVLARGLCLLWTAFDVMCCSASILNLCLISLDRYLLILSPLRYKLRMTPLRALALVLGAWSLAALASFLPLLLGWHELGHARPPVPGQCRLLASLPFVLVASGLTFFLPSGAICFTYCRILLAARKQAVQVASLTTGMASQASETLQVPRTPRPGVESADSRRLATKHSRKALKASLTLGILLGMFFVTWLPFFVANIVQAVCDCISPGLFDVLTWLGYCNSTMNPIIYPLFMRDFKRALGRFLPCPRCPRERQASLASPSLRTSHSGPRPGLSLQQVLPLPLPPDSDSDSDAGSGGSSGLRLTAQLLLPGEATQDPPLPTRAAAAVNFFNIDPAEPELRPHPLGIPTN
`Cc1cc(NS(=O)(=O)c2ccc(N)cc2)no1` [SULFAMETHOXAZOLE]: the IC50 result was “Not Active”.
On the same count and under the same terms, with `O=C1c2c(O)ccc(O)c2C(=O)c2c(NCCNCCO)ccc(NCCNCCO)c21` [MITOXANTRONE] the entry was “Not Active”.

Test system in a further experiment: not listed separately
In words: DRUGMATRIX: Nicotinic Acetylcholine radioligand binding (ligand: [125I] Epibatidine). The experiment is classed as cell membranes, Membrane. As to conditions: imr-32; Not Active = under 50% inhibition at 10 µM.
As to `Cc1cc(NS(=O)(=O)c2ccc(N)cc2)no1` [SULFAMETHOXAZOLE], the IC50 result was “Not Active” and the Ki entry was “Not Active”.
On to `O=C1c2c(O)ccc(O)c2C(=O)c2c(NCCNCCO)ccc(NCCNCCO)c21` [MITOXANTRONE], for which the IC50 result is given as “Not Active” and the Ki result is on record as “Not Active”.

Test system in another experiment: not listed separately
Briefly: DRUGMATRIX: ATPase, Na+/K+ enzyme inhibition (substrate: ATP). The experiment is classed as tissue-based, Sus scrofa, Heart. The settings on record: Not Active = under 50% inhibition at 10 µM.
Regarding `Cc1cc(NS(=O)(=O)c2ccc(N)cc2)no1` [SULFAMETHOXAZOLE], the IC50 result is “Not Active” and the Ki entry was “Not Active”.
Consider `O=C1c2c(O)ccc(O)c2C(=O)c2c(NCCNCCO)ccc(NCCNCCO)c21` [MITOXANTRONE], for which the IC50 result is listed as “Not Active” and the Ki entry is listed as “Not Active”.

The target in another experiment is T2, 5-hydroxytryptamine receptor 2C (Homo sapiens, UniProt P28335).
T2 sequence (P28335 whole entry): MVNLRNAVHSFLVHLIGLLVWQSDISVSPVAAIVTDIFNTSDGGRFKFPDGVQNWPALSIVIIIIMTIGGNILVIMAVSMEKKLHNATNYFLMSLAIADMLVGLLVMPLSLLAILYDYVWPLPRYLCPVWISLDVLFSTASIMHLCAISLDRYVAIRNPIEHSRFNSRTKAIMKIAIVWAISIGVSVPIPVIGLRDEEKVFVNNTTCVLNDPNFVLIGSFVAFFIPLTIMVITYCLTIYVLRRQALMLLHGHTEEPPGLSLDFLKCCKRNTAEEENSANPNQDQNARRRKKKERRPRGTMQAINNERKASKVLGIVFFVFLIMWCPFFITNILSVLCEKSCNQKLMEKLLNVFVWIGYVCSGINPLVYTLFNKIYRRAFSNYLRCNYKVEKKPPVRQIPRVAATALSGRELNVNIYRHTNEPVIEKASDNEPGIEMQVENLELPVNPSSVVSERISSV
Briefly: DRUGMATRIX: Serotonin (5-Hydroxytryptamine) 5-HT2C radioligand binding (ligand: [3H] Mesulergine). The experiment is classed as cell membranes, CHO-K1, Membrane. As to conditions: cho-k1; Not Active = under 50% inhibition at 10 µM.
In the case of `Cc1cc(NS(=O)(=O)c2ccc(N)cc2)no1` [SULFAMETHOXAZOLE], the IC50 result is reported as “Not Active”.

The target in another experiment is Sigma non-opioid intracellular receptor 1 (Homo sapiens, UniProt Q99720). In words: DRUGMATRIX: Sigma1 radioligand binding (ligand: [3H] Haloperidol). It counts as cell membranes, Jurkat, Membrane. As to conditions: jurkat; Not Active = under 50% inhibition at 10 µM.
Sigma non-opioid intracellular receptor 1, sequence (Q99720 whole entry): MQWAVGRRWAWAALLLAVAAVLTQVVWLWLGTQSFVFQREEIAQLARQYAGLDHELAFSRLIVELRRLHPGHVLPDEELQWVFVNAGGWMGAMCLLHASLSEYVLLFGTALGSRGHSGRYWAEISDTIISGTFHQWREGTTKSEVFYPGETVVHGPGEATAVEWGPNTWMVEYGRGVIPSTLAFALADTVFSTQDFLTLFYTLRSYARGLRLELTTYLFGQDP
Regarding `Cc1cc(NS(=O)(=O)c2ccc(N)cc2)no1` [SULFAMETHOXAZOLE], the IC50 result is “Not Active”.
On to `O=C1c2c(O)ccc(O)c2C(=O)c2c(NCCNCCO)ccc(NCCNCCO)c21` [MITOXANTRONE], for which the IC50 entry is “Not Active”.

Test system in the next experiment: not listed separately
In words: DRUGMATRIX: Glutamate, Kainate radioligand binding (ligand: [3H] Kainic acid). The experiment is classed as cell membranes, Rattus norvegicus, Wistar, Brain, Membrane. The settings on record: Not Active = under 50% inhibition at 10 µM.
Regarding `Cc1cc(NS(=O)(=O)c2ccc(N)cc2)no1` [SULFAMETHOXAZOLE], the IC50 result is reported as “Not Active” and the Ki entry is on record as “Not Active”.
Consider `O=C1c2c(O)ccc(O)c2C(=O)c2c(NCCNCCO)ccc(NCCNCCO)c21` [MITOXANTRONE], for which the IC50 entry is “Not Active” and the Ki result was “Not Active”.

Test system in another experiment: not listed separately
Briefly: DRUGMATRIX: Calcium Channel Type L, Benzothiazepine radioligand binding (ligand: [3H] Diltiazem). It counts as cell membranes, Rattus norvegicus, Wistar, Brain, Membrane. The settings on record: Not Active = under 50% inhibition at 10 µM.
`Cc1cc(NS(=O)(=O)c2ccc(N)cc2)no1` [SULFAMETHOXAZOLE]: the IC50 result is given as “Not Active” and the Ki entry is given as “Not Active”.
Turning to `O=C1c2c(O)ccc(O)c2C(=O)c2c(NCCNCCO)ccc(NCCNCCO)c21` [MITOXANTRONE], the IC50 result was “Not Active” and the Ki entry is recorded as “Not Active”.

For the next experiment, the target named is Mu-type opioid receptor (Homo sapiens, UniProt P35372). Briefly: DRUGMATRIX: Opiate mu (OP3, MOP) radioligand binding (ligand: [3H] Diprenorphine). The settings on record: cho-k1; Not Active = under 50% inhibition at 10 µM. The experiment is classed as cell membranes, CHO-K1, Membrane.
Mu-type opioid receptor, sequence (P35372 whole entry): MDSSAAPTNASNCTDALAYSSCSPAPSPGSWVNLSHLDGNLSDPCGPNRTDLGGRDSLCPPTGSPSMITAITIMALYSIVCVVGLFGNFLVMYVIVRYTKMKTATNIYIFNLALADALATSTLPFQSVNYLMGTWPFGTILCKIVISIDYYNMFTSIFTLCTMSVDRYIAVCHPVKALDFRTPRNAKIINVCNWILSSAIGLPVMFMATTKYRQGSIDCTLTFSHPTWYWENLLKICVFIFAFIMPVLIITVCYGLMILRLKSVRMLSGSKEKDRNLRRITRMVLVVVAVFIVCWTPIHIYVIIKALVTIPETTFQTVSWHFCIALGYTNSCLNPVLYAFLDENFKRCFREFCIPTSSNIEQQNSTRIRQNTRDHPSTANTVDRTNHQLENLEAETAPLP
Regarding `Cc1cc(NS(=O)(=O)c2ccc(N)cc2)no1` [SULFAMETHOXAZOLE], the IC50 entry is “Not Active”.
As for `O=C1c2c(O)ccc(O)c2C(=O)c2c(NCCNCCO)ccc(NCCNCCO)c21` [MITOXANTRONE], the IC50 entry is given as “Not Active”.

Test system in the next experiment: not listed separately
Briefly: DRUGMATRIX: Serotonin (5-Hydroxytryptamine) 5-HT3 radioligand binding (ligand: [3H] GR-65630). It counts as cell membranes, Membrane. The settings on record: hek293; Not Active = under 50% inhibition at 10 µM.
`Cc1cc(NS(=O)(=O)c2ccc(N)cc2)no1` [SULFAMETHOXAZOLE]: the IC50 entry is recorded as “Not Active” and the Ki entry is “Not Active”.
As to `O=C1c2c(O)ccc(O)c2C(=O)c2c(NCCNCCO)ccc(NCCNCCO)c21` [MITOXANTRONE], the IC50 entry was “Not Active” and the Ki result is “Not Active”.

The next experiment deals with Melanocortin receptor 4 (Homo sapiens, UniProt P32245). The experiment is classed as cell membranes, Membrane. The settings on record: hek293.
Melanocortin receptor 4, sequence (P32245 whole entry): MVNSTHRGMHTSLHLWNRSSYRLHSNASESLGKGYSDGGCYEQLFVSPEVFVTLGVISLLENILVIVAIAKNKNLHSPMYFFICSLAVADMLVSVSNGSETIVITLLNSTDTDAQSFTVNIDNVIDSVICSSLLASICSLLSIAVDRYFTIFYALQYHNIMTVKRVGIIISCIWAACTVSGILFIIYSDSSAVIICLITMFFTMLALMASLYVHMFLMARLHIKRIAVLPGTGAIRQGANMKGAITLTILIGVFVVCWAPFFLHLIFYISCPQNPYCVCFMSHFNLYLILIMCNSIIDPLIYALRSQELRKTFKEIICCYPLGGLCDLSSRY
For the compound `Cc1cc(NS(=O)(=O)c2ccc(N)cc2)no1` [SULFAMETHOXAZOLE], the IC50 entry was “Not Active”.
Same read-out and setting: with `O=C1c2c(O)ccc(O)c2C(=O)c2c(NCCNCCO)ccc(NCCNCCO)c21` [MITOXANTRONE] the entry was “Not Active”.

Test system in the next experiment: not listed separately
In words: DRUGMATRIX: GABAA, Muscimol, Central radioligand binding (ligand: [3H] Muscimol). The experiment is classed as cell membranes, Rattus norvegicus, Wistar, Brain, Membrane. The settings on record: Not Active = under 50% inhibition at 10 µM.
On to `Cc1cc(NS(=O)(=O)c2ccc(N)cc2)no1` [SULFAMETHOXAZOLE], for which the IC50 entry is listed as “Not Active” and the Ki result is “Not Active”.
In the case of `O=C1c2c(O)ccc(O)c2C(=O)c2c(NCCNCCO)ccc(NCCNCCO)c21` [MITOXANTRONE], the IC50 result is “Not Active” and the Ki entry is reported as “Not Active”.

For a further experiment, the target named is T3, Alpha-1B adrenergic receptor (Rattus norvegicus, UniProt P15823).
T3 sequence (P15823 whole entry): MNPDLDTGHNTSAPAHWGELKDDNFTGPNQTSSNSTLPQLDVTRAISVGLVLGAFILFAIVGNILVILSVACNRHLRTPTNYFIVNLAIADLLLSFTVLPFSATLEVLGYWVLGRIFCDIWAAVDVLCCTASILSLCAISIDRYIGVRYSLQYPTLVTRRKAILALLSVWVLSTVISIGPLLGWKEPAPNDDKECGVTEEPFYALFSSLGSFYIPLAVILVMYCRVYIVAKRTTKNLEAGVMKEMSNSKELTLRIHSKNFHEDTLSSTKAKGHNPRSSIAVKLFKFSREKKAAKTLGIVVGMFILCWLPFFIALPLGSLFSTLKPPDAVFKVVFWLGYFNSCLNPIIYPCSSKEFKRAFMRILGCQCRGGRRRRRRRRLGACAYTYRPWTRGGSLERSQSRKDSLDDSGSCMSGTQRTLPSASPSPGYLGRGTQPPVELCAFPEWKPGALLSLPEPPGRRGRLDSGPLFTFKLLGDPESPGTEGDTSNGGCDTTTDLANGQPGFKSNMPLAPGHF
Briefly: DRUGMATRIX: Alpha-1B adrenergic receptor radioligand binding (ligand: prazosin). As to conditions: Not Active = under 50% inhibition at 10 µM. It counts as cell membranes, Wistar, Liver, Membrane.
`Cc1cc(NS(=O)(=O)c2ccc(N)cc2)no1` [SULFAMETHOXAZOLE]: the IC50 result was “Not Active”.
As to `O=C1c2c(O)ccc(O)c2C(=O)c2c(NCCNCCO)ccc(NCCNCCO)c21` [MITOXANTRONE], the IC50 entry is “Not Active”.

The next experiment concerns the target Kappa-type opioid receptor (Homo sapiens, UniProt P41145). Briefly: DRUGMATRIX: Opiate kappa (OP2, KOP) radioligand binding (ligand: [3H] Diprenorphine). The experiment is classed as cell membranes, HEK293, Membrane. As to conditions: hek293; Not Active = under 50% inhibition at 10 µM.
For the compound `Cc1cc(NS(=O)(=O)c2ccc(N)cc2)no1` [SULFAMETHOXAZOLE], the IC50 result is recorded as “Not Active”.
In the case of `O=C1c2c(O)ccc(O)c2C(=O)c2c(NCCNCCO)ccc(NCCNCCO)c21` [MITOXANTRONE], the IC50 entry was “Not Active”.

The target of another experiment is Beta-1 adrenergic receptor (Homo sapiens, UniProt P08588). Briefly: DRUGMATRIX: Adrenergic beta1 radioligand binding (ligand: [125I] Cyanopindolol). The settings on record: cho-k1; Not Active = under 50% inhibition at 10 µM. The experiment is classed as cell membranes, CHO-K1, Membrane.
Beta-1 adrenergic receptor, sequence (P08588 whole entry): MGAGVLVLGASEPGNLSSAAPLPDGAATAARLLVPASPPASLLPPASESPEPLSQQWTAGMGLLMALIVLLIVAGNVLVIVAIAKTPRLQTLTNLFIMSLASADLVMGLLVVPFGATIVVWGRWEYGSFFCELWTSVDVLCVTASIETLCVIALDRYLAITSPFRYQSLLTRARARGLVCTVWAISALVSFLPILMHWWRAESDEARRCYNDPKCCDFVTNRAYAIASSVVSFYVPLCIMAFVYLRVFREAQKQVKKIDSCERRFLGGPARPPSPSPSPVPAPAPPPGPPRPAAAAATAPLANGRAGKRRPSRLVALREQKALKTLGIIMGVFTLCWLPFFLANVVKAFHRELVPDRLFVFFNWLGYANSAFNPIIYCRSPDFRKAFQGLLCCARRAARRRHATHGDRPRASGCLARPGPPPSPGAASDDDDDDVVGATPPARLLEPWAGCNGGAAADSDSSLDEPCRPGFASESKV
With `Cc1cc(NS(=O)(=O)c2ccc(N)cc2)no1` [SULFAMETHOXAZOLE], the IC50 entry is “Not Active”.
With `O=C1c2c(O)ccc(O)c2C(=O)c2c(NCCNCCO)ccc(NCCNCCO)c21` [MITOXANTRONE], the IC50 entry was “Not Active”.

The target in another experiment is T4, Neuropeptide Y receptor type 2 (Homo sapiens, UniProt P49146). Further: in other assays of this panel Not Active means under 50% inhibition at 10 µM.
T4 sequence (P49146 whole entry): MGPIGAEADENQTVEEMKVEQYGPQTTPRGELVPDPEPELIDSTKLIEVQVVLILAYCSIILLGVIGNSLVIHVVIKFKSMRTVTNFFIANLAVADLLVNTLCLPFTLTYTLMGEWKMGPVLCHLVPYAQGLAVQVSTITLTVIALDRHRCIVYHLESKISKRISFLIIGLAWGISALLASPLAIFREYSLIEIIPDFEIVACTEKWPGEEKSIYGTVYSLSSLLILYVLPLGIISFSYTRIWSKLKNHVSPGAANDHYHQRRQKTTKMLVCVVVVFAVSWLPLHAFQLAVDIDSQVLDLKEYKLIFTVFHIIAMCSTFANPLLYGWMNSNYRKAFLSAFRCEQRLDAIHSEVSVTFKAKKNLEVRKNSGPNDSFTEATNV
The experiment is classed as cell membranes, Membrane. As to conditions: kan-ts.
Regarding `Cc1cc(NS(=O)(=O)c2ccc(N)cc2)no1` [SULFAMETHOXAZOLE], the IC50 entry is “Not Active”.
Consider `O=C1c2c(O)ccc(O)c2C(=O)c2c(NCCNCCO)ccc(NCCNCCO)c21` [MITOXANTRONE], for which the IC50 result is “Not Active”.
